Measured values as given in ChEMBL document CHEMBL1821551, “From fragment screening to in vivo efficacy: optimization of a series of 2-aminoquinolines as potent inhibitors of beta-site amyloid precursor protein cleaving enzyme 1 (BACE1)” (J Med Chem, 2011).

System: human MDR1 (P-gp)
Test: in vitro
Details: pig, LLC-PK1

Row | Structure (SMILES) | Papp
1 | Cc1ccccc1-c1ccc2nc(N)c(C[C@@H](C)C(=O)NCc3ccccc3)cc2c1 | 6.5 ×10⁻⁶ cm/s
2 | Cc1ccccc1-c1ccc2nc(N)c(CC(C)C(=O)NCc3cccnc3)cc2c1 (racemic) | 16 ×10⁻⁶ cm/s
3 | Cc1ccccc1-c1ccc2nc(N)c(CC(C)C(=O)NCc3cncs3)cc2c1 (racemic) | 12 ×10⁻⁶ cm/s
